How the values were obtained:
Type in all cases: cell-based
MMP-9 = assay: Gelatin zymography of human myoblasts, MMP-9
Procedure: Briefly, myoblasts were grown in 6 cm tissue culture plates to approximately 70% confluence, then rinsed three times with serumfree DMEM and incubated for 3 hours in DMEM containing 0.2% BSA to eliminate the effects of serum. Growth factors were added and cells were incubated for 24 hours. Culture medium was then collected, centrifuged to pellet detached cells, and concentrated ten-to twenty-fold using the Centricon-10 (Amicon, Beverly, Mass.) system. The protein concentration of the supernatants was determined using the Bio-Rad protein microassay system with BSA used as the standard. Samples were stored at −70° C. until use. For gelatin zymography, aliquots (10 μg as the total protein per sample) were electrophoresed at constant voltage on a 10% polyacrylamide gel containing 2 mg/ml gelatin. The gel was rinsed three times for 15 min in 2.5% Triton-X 100 to remove SDS and renature the proteins, then incubated in MMP activation buffer (0.05 M Tris-HCl, pH 7.5 with 5 mM CaCl2) for 24 hours at 37° C. with constant shaking. Gels were stained overnight in 0.5% Coomassie blue R-250, and destained for 1 hour in 40% methanol: 10% acetic acid. Proteinase activity was quantified by densitometric scanning of bands using a Bio-Rad Gel Doc 1000 video camera imaging system (Bio Rad, Hercules, Calif.).

human myoblasts = assay: In vitro human myoblast invasion of Matrigel; settings: 24 hour time point
Procedure: Mouse myoblasts were previously isolated from hind limb muscles of 4-6 week old severe combined immunodeficient (SCID) mice and clonally purified from contaminating fibroblasts (Yao et al. “Primary myoblast-mediated gene: transfer: persistent expression of human factor IX in mice” Gene Therapy 1:99-107, 1994). Myoblasts (approximately 1×10^6 cells) were plated on 6 cm tissue culture plates coated with 0.5% gelatin (Sigma, St. Louis, Mo.) and grown in growth medium consisting of Dulbecco's Modified Eagle Medium (DMEM) (Gibco BRL, Gaithersburg Md.) supplemented with 20% fetal bovine serum (FBS; Gibco) and 0.5% chick embryo extract (CEE; Gibco). All animal studies were carried out following the institutional guidelines for ethical animal use. Human myoblasts were isolated using trypsin digestion from abdominal wall or chest wall muscle biopsies, and surgery. […] Myoblast migration and invasion were examined using a commercially available in vitro cell migration and invasion assay kit (Biocoat, Becton Dickinson, Franklin Lakes, N.J.) as described by Albini et al. (A rapid in vitro assay for quantitating the invasive potential of tumor cells Cancer Res 47:3239-3245, 1987). […] The number of cells per field was counted in 10 randomly selected fields and averaged for each condition. […]

MMP-2 = assay: Gelatin zymography of human myoblasts, MMP-2
Procedure: Gelatin zymography for assaying MMPs was carried out as previously described (Guerin and Holland “Synthesis and secretion of matrix-degrading metalloproteinases by human skeletal muscle satellite cells” Devel. Dynamics 202:91-99,1995) with minor modifications. Briefly, myoblasts were grown in 6 cm tissue culture plates to approximately 70% confluence, then rinsed three times with serumfree DMEM and incubated for 3 hours in DMEM containing 0.2% BSA to eliminate the effects of serum. Growth factors were added and cells were incubated for 24 hours. Culture medium was then collected, centrifuged to pellet detached cells, and concentrated ten-to twenty-fold using the Centricon-10 (Amicon, Beverly, Mass.) system. The protein concentration of the supernatants was determined using the Bio-Rad protein microassay system with BSA used as the standard. Samples were stored at −70° C. until use. For gelatin zymography, aliquots (10 μg as the total protein per sample) were electrophoresed at constant voltage on a 10% polyacrylamide gel containing 2 mg/ml gelatin. […] Proteinase activity was quantified by densitometric scanning of bands using a Bio-Rad Gel Doc 1000 video camera imaging system (Bio Rad, Hercules, Calif.). […]

Substance	effect on MMP-9 expression (92 kDa band) (MMP-9)	stimulation of human myoblast invasion of Matrigel over the BSA control (human myoblasts) [fold]	MMP-2 activation (MMP-2)
bovine basic fibroblast growth factor [bFGF]	only marginal increases in MMP-9 expression		
human serum fibronectin		2.3	significant increase in MMP-2 activation
